Measurements: paper PMC11141866, “Pyrimidine depletion enhances targeted and immune therapy combinations in acute myeloid leukemia” (JCI Insight, 2024)
Where “and” joins values, the source holds several entries; their conditions need not be identical. Equal values may be shown once. Read-outs that look alike come from different tables or passages of the source.

Legend:
[1] = molecular target: Rat DHODH (Rattus norvegicus, UniProt Q63707); assay: Cell-free multi-species DHODH enzyme inhibition assay, rat; format: biochemical; settings: n=1
[2] = HOSU-53 plasma exposure in MOLM-13 tumor-bearing mice; format: in vivo, NCG mice; settings: per mouse; for AUC: NCG, mouse, plasma, po, read-out: HOSU-53 AUCall
Description: Male 8- to 12-week-old NCG mice were engrafted with 1 × 10^5 cells via tail vein i.v. injection. […] Figure 3B and Figure 4, A and B, share the same vehicle group. page 6: Plasma samples were obtained following appropriate dosing administration and saved in the -80°C freezer till the time of analysis. Analyses by LC-MS/MS followed sample extraction by protein precipitation and separation by Ultra Performance Liquid Chromatography (UPLC, Waters Corporation, MA, USA) using a C18 column, 1.7um, 2.1x50mm, Mobile Phase A: 5:95:0.1 (v:v:v) Acetonitrile:Water:Formic Acid, Mobile Phase B: 50:50:0.1 (v:v:v) Methanol:Acetonitrile:Formic Acid. MS/MS analyses were performed on an API-6500 (Absciex MA, USA) in positive mode using an electrospray source at 550°C. The internal standard was d4-AEA monitored at 352.2 and 66.0 m/z transitions and the target analyte, HOSU-53, was monitored at 416.5 and 331.1 m/z transitions. The assay was qualified between 10-5,000 ng/ml HOSU53 to be within ±20% for QCs above the LLOQ in this range and ±25% at the LLOQ. DHO concentration quantification in mouse plasma samples. Plasma samples were obtained following appropriate dosing administration and saved in the -80°C freezer till the time of analysis. Analyses by LC-MS/MS followed sample extraction by protein precipitation and separation by Ultra Performance Liquid Chromatography (UPLC, Waters Corporation, MA, USA) using a Phenomenex Aqua C18 100x4.6mm, 3uM, […], Mobile Phase A: 100:0.1 (v:v) Water:Formic Acid, Mobile Phase B: 100:0.1 (v:v) Methanol:Formic Acid. MS/MS analyses were performed on an API-4000 (Absciex MA, USA) in negative mode using an electrospray source at 550°C. The internal standard was labeled 13C14_L-Dihydroorotic Acid monitored at 161.3 and 117.1 m/z transitions and the target analyte, L-Dihydroorotic Acid (DHO), was monitored at 157.0 and 70.0 m/z transitions. The assay was qualified between 10.0-30,000 ng/ml DHO to be within ±20% for QCs above the LLOQ in this range and ±25% at the LLOQ.

[3] = system: MOLM-13 disseminated CDX AML model; assay: MOLM-13 CDX synergy with FLT3 inhibitor gilteritinib (treatment from day 10); format: in vivo, NCG mice
Description: Male 8- to 12-week-old NCG mice were engrafted with 1 × 10^5 cells via tail vein i.v. injection. At 10 days after engraftment (day 1 of treatment), mice (n = 10/arm) were randomized to receive p.o. qd vehicle (50/50 mix of 20% HPβCD and 0.5% methylcellulose + 0.2% Tween 80), […] treatment, day 79. Treatment was predetermined to stop on day 79, after which any remaining mice would be monitored until ERC.

[4] = system: MV4-11 AML target cells; assay: Murine BMDM phagocytosis of MV4-11 cells (ADCP); format: cell-based, human
Description: Supplemental Figure S.9. A) Murine bone marrow derived macrophages (BMDM, effector cells) were generated from harvested bone marrow cells grown in the presence of 20ng/ml murine M-CSF for 7-8 days where media was refreshed on day 3. After BMDM generation, they were collected and stained […]
with CFDA-SE (green). […]
and stained with CTV (blue). Green BMDM cells were then co-cultured for 4 h with blue MV4-11 AML cells in the presence of 10 µg/ml isotype IgG1 or anti-CD47 antibody at 1:1 E:T ratio in an ultra-low binding tissue culture plate. Cells were then collected and analyzed using flow cytometry to quantify percentage of phagocytosed cells indicated by viable F4/80+CFDA+CTV+ cells (n=6). Adjusted FDR p-value *<0.05, ***≤0.0001, nonsignificant (ns) ≥0.05. B) Representative florescent microscopy images were taken using 20x objective to visualize antibody dependent cellular phagocytosis (ADCP). Prior to imaging, the wells were rinsed three time to remove MV4-11 target cells in suspension and allow the imaging of adherent effector cells (green BMDM) and residual blue MV4 -11 target cells. The outlined area in the red box is manually enlarged.
(1 picture or pasted object on this page, not shown here)

[5] = system: OCI-AML3; assay: MTS proliferation assay, OCI-AML3; format: cell-based; settings: Homo sapiens, OCI-AML-3; OCI-AML3, 96-hour treatment; read-out: IC50 (MTS proliferation)
Description: A total of 10,000–20,000 cells from different AML lines or 50,000–75,000 cells of primary AML blasts were treated in a 96-well plate for 72 hours or 96 hours at 37°C, 5% CO2. CellTiter 96 Aqueous MTS reagent (Promega) was added to cells followed by a 3-hour incubation at 37°C, 5% CO2. The absorbance was measured at 490 nm using DTX 880 plate reader, and the IC50 was calculated using GraphPad Prism.

Chain of Rat DHODH (Q63707 whole entry): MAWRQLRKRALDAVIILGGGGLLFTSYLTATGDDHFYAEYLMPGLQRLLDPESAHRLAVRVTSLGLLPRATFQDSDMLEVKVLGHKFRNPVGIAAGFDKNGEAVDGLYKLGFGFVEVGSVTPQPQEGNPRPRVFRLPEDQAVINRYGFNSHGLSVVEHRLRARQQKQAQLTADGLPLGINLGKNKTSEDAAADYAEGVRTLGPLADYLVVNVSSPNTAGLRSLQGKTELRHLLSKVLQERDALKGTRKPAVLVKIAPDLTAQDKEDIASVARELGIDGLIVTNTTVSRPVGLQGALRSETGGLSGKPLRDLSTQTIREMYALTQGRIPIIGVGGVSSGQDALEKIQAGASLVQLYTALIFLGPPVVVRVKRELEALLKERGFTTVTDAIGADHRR

CCCCOc1cccc(-c2ccc(-c3cc(C(=O)O)c4cc(F)ccc4n3)cc2)c1 [HOSU-53]
IC50 [1]: 7.65 nM | HOSU-53 AUCall ([2]; Day 1, 4 mpk PO, male mice, 4 mg/kg): 915.984 µM·h and 1069.99 µM·h | HOSU-53 AUCall ([2]; Day 1, 10 mpk PO, male mice, 10 mg/kg): 1989.31 µM·h and 1940.99 µM·h | HOSU-53 AUCall ([2]; Day 1, 20 mpk PO, male mice, 20 mg/kg): 3244.97 µM·h and 3430.6 µM·h | HOSU-53 AUCall ([2]; Day 1, 30 mpk PO, male mice, 30 mg/kg): 5214.04 µM·h and 4142.06 µM·h | HOSU-53 AUCall ([2]; Day 14, 4 mpk PO, male mice, 4 mg/kg): 2230.22 µM·h and 2019.88 µM·h | HOSU-53 AUCall ([2]; Day 14, 10 mpk PO, male mice, 10 mg/kg): 3666.3 µM·h and 3989.64 µM·h | HOSU-53 AUCall ([2]; Day 14, 20 mpk PO, male mice, 20 mg/kg): 6180.8 µM·h and 5557.2 µM·h | HOSU-53 AUCall ([2]; Day 14, 30 mpk PO, male mice, 30 mg/kg): 7551.75 µM·h and 6154.9 µM·h | AUC ([2]; female, 10 mg/kg, Day 1, 10 mpk PO, female mice): 2830 µM·h | AUC ([2]; female, 10 mg/kg, Day 14, 10 mpk PO, female mice): 3980 µM·h | AUC ([2]; male, 4 mg/kg, Day 1, 4 mpk PO, male mice): 780 µM·h | AUC ([2]; male, 4 mg/kg, Day 14, 4 mpk PO, male mice): 1930 µM·h | AUC ([2]; male, 10 mg/kg, Day 1, 10 mpk PO, male mice): 1890 µM·h | AUC ([2]; male, 10 mg/kg, Day 14, 10 mpk PO, male mice): 3860 µM·h | AUC ([2]; male, 20 mg/kg, Day 1, 20 mpk PO, male mice): 3670 µM·h | AUC ([2]; male, 20 mg/kg, Day 14, 20 mpk PO, male mice): 5090 µM·h | AUC ([2]; male, 30 mg/kg, Day 1, 30 mpk PO, male mice): 4470 µM·h | AUC ([2]; male, 30 mg/kg, Day 14, 30 mpk PO, male mice): 6660 µM·h | median survival ([3]; 10 mg/kg HOSU-53 daily p.o.): 48 days | Survival, day of study at event (per animal) ([3]; 4 mpk HOSU-53 poqd): 40 days and 35 days and 44 days and 43 days and 37 days and 39 days | Survival, day of study at event (per animal) ([3]; 10 mpk HOSU-53 poqd): 54 days and 44 days and 43 days and 59 days and 58 days and 52 days | CDFA+F4/80+CTV+ ([4]; 25nM HOSU53 + IgG1, six replicate columns, DMSO + IgG1 control 3.5-16.7): 31.4 and 44.6 and 23.1 and 30.2 and 23.9 and 17.1 | phagocytosis of AML cells by murine BMDM in presence of B6H12 antibody ([4]; 72-hour HOSU-53 (10nM) pretreatment of MV4-11, 10 µg/ml anti-CD47): greatly enhanced phagocytosis | IC50 [5]: 20 nM
